Data as given in patent US9315522B2, “Antibacterial compounds” (JANSSEN SCIENCES IRELAND UC, priority 2012, dated 2016).
≈ marks a conversion by molar mass, not a printed value.

Tests used:
[1] = biological target: T1, S. aureus ATCC 29213 FabI (Staphylococcus aureus, UniProt Q6GI75); test: Staphylococcus aureus FabI enzyme inhibition assay; format: biochemical; conditions: read-out: FabI (300.235) IC50 (converted)
T1 sequence (Q6GI75 1-256): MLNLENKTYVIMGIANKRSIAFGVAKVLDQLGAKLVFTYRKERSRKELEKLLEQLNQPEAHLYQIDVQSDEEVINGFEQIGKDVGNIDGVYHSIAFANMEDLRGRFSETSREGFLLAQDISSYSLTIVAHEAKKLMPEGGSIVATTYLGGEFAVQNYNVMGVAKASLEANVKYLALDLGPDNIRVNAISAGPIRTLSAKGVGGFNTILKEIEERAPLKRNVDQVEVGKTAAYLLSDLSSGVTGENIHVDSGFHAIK
In short: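 S. aureus ATCC 29213 FabI (50 μg/ml) with 250 μM crotonoyl-CoA and 625 μM NADH in 100 mM NaADA pH 6.5, inhibitor 50–0.39 μM, 30 min at room temperature. Stopped by Tris pH 9.0 shift; NADH at 340 nm versus no-compound and no-enzyme controls; IC50 in μg/ml.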

[2] = tested on: Staphylococcus aureus ATCC 29213; test: Antibacterial susceptibility testing, IC90 determination (STA); format: cell-based; conditions: Staphylococcus aureus, ATCC29213, Staphylococcus aureus ATCC 29213, broth microdilution, resazurin; read-out: STA (361.159) IC90
In short: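 S. aureus ATCC 29213 tested by broth microdilution in Mueller-Hinton broth, 5×10^5 CFU/ml, two-fold compound dilutions typically 63 to 0.49 μM, 1.25% DMSO, 16-20 h at 35° C. Growth read fluorometrically with resazurin (ex 540/em 590 nm); IC90 in μg/ml is 90% growth-inhibitory concentration.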

S. aureus = test: Antibacterial susceptibility testing, IC90 determination with 10% human serum (STA + 10% HS); format: cell-based, Staphylococcus aureus; conditions: Staphylococcus aureus, human serum at final concentration of 10%, read-out: STA + 10% HS (361.169) IC90
In short: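 Broth microdilution in Mueller-Hinton broth with 10% human serum, 5×10^5 CFU/ml S. aureus, two-fold compound dilutions (typically 63 to 0.49 μM), 1.25% DMSO, 16-20 h at 35° C. Growth read fluorometrically with resazurin (ex 540/em 590 nm); IC90 in μg/ml is the 90% growth-inhibitory concentration.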

[3] = Thermodynamic solubility (pH solubility profiling); format: physicochemical; conditions: thermodynamic from solid
Description: The pH solubility profiling was carried out at ambient temperature for a period of 4 days. A saturation solubility study was carried out in order to determine maximum solubility in a particular buffer solution. The compound was added to respective buffer solution until saturation point is reached. This was followed by shaking the flask for 4 days at ambient temperature. After 4 days, the solutions were filtered and injected on UPLC and the concentration was determined using a generic HPLC method.

[4] = In vivo pharmacokinetic and oral bioavailability in mouse; set-up: species or system male Swiss mice
Description: The in vivo pharmacokinetics and oral bioavailability of the compound of the examples were/are investigated in male Swiss mice (fed) following single intravenous (i.v.) bolus and oral (p.o.) administration. For the i.v. and p.o. solution formulations, the compound was/is dissolved in a 20% HP-β-CD solution. The pH of the formulations was/is around pH 4. All i.v. formulations were isotonic.

[5] = male, Swiss, plasma, iv, 2.5 mg/kg, 20% HP-β-cyclodextrin
[6] = male, Swiss, plasma, po, 10 mg/kg, 20% HP-β-cyclodextrin

O=C1CNCc2cc(/C=C/C(=O)N3CC4C=C(c5nccs5)CC4C3)cnc2N1 (stereo not shown) [compound 48]
IC50 [1]: ~663 nM
IC90 [2]: 0.24 µg/mL (≈ 0.000589 mM)
IC90 (S. aureus): 0.21 µg/mL
solubility thermodynamic at 4 days ([3]; aqueous buffer, Buffer pH 4, ambient temperature): 440 µg/mL (≈ 1.08 mM)
solubility thermodynamic at 4 days ([3]; aqueous buffer, Buffer pH 7.4, ambient temperature): > 1220 µg/mL
solubility thermodynamic at 4 days ([3]; aqueous with cosolvent or surfactant or cyclodextrin, 10% HP-β-CD buffer pH 4, ambient temperature): > 2470 µg/mL
solubility thermodynamic at 4 days ([3]; aqueous with cosolvent or surfactant or cyclodextrin, 10% HP-β-CD buffer pH 7.4, ambient temperature): > 1380 µg/mL
solubility thermodynamic at 4 days ([3]; aqueous with cosolvent or surfactant or cyclodextrin, 20% HP-β-CD buffer pH 4, ambient temperature): > 4720 µg/mL
solubility thermodynamic at 4 days ([3]; aqueous with cosolvent or surfactant or cyclodextrin, 20% HP-β-CD buffer pH 7.4, ambient temperature): > 2410 µg/mL
solubility thermodynamic at 4 days ([3]; pH 2, simulated gastric fluid, 0.01N HCl, ambient temperature): > 2560 µg/mL
Vdz ([4]; i.v., 2.5 mg/kg, 20% HP-β-cyclodextrin): 2.8 L/kg
AUC(0-inf) [4, 5]: 1600 ng·h/mL
C0 [4, 5]: 4560 ng/mL
half-life ([4]; male, Swiss, plasma, iv, 2.5 mg/kg, 20% HP-β-cyclodextrin, read-out: Half life (t1/2) (converted)): 1.2 h
clearance ([4]; male, Swiss, plasma, iv, 2.5 mg/kg, 20% HP-β-cyclodextrin, read-out: Plasma clearance Cl (converted)): 26.7 mL/min/kg
AUC(0-inf) [4, 6]: 2050 ng·h/mL
Cmax [4, 6]: 483 ng/mL
Tmax [4, 6]: 1.3 h
bioavailability ([4]; male, Swiss, plasma, po, p.o. 10 mg/kg vs i.v. 2.5 mg/kg): 32%
